Measurements: US5616615A, “Enaminone esters” (priority 1995, dated 1997)
Like-named read-outs stand apart in the source and are kept apart here.

Legend:
[1] = system: bicuculline, picrotoxin, pentylenetetrazol, and strychnine; conditions: in vivo
Description: (§1) Both 12 and 27 were evaluated in Phase V of the ADD Program evaluation scheme. Phase V provides quantification against bicuculline, picrotoxin, pentylenetetrazol, and strychnine. This screen provides information on the mechanism of action of the anticonvulsant activity. Bicuculline, picrotoxin, and strychnine correspond to GABA inhibitory function, chloride channel inhibition and inhibition by glycine respectively.

Neurotoxicity, rats ip = conditions: 100 mg/kg
Description: The rotorod test is used to elevate neurotoxicity. The animal is placed on a 1 inch diameter knurled plastic rod rotating at 6 rpm. […] Neurologic toxicity is defined as the failure of the animal to remain on the rod for 1 minute and the results are expressed as the number of animals protected/the number of animals tested.
The toxicity evaluation for the commercial agents as previously indicated was based on the onset of ataxia.

in vivo [2] = conditions: mouse, in vivo, ip
adenosine uptake = adenosine uptake assay
[3] = system: Maximal electroshock seizures; assay: MES maximal electroshock seizure test, mice ip; format: in vivo; set-up: TPE (time of peak effect), activity: unit not given here; conditions: ip; for responders at 100 mg/kg: read-out: MES, animals protected/tested (converted); for responders at 300 mg/kg: read-out: MES, animals protected/tested
Description: Three tests were performed:
1. MES--Electroshock Seizure Test
(§2) Maximal electroshock seizures are elicited with a 60-cycle alternating current of 50 mA intensity (5-7 times that necessary to elicit minimal electroshock seizures) delivered via corneal electrodes for 0.2 seconds. A drop of 0.9% saline is instilled in the eye prior to application of the electrodes in order to […].

Kinetic hydrolysis = format: physicochemical; conditions: for average absorbance value: over incubation periods
Description: This solution was 4.0×10^-5 M. Phosphate buffer, pH 7.4 and water were used in this study. All experiments were performed in triplicate. A volume of the stock ethanol solution of 1 (0.2 mL), was diluted with the appropriate solvent to make 1 mL of solution. Each mixture was sealed in a Teflon capped reaction vial and incubated at 37° C. for the same time periods as indicated in the ip rat toxicity study (Tables X and X-A). After each time period, the vials were removed from the incubator and quenched at -80° C. until ready for analysis. Initial scan (t=O h) indicated a λ max at 311 nm for 27. […] After all samples were incubated, the UV spectra was taken from 190-500 nm using the respective solvent as a blank. The results were plotted in terms of absorbance v, time of incubation and the absorbance values.

strychnine = assay: Phase V quantification against strychnine; format: in vivo; conditions: dose not given
Description: as §1

in vivo [4] = conditions: rat, po
Description: (§3) This oral screen is designated as phase VI.

benzodiazepine receptor = benzodiazepine receptor binding evaluation
bicuculline = assay: Phase V quantification against bicuculline; format: in vivo; conditions: dose not given
Description: as §1

seizures = assay: Anticonvulsant evaluation (ASP phase I / overall); format: in vivo, mice
Procedure, shortened: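 Male Carworth Farms #1 mice; maximal electroshock seizures elicited by 60-cycle AC, 50 mA, 0.2 s via corneal electrodes after a drop of 0.9% saline in the eye. Animals observed for 30 minutes.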

GABA receptor = GABA receptor binding test
[5] = system: Subcutaneous Pentylenetetrazol seizure; assay: sc Met subcutaneous pentylenetetrazol (Metrazol) seizure test, mice; format: in vivo; conditions: Mus musculus, sc, read-out: scMet, animals protected/tested (converted)
[6] = system: Amygdala Kindled Seizures; assay: Suppression of amygdala kindled seizures; format: in vivo
Description: Compounds 12 and 27 were evaluated in our laboratory for suppression of amygdala kindled seizures.

picrotoxin = assay: Phase V quantification against picrotoxin; format: in vivo; conditions: dose not given
Description: as §1

pentylenetetrazol = assay: Phase V quantification against pentylenetetrazol; format: in vivo; conditions: dose not given
Description: as §1

[7] = system: Maximal electroshock seizures; assay: Phase VI oral MES test, rats; format: in vivo; conditions: oral; for responders at 6 mg/kg / responders at 10 mg/kg: Rattus norvegicus, read-out: MES, animals protected/tested (converted)
Description: as §2, §3

Corneal Kindled rats = assay: Corneal kindling; format: in vivo; conditions: for Ave. seizure score: ranking 0-5; for ED50: Rattus norvegicus
Description: Corneal kindling studies were performed in our laboratories on 12 and 27 and the results are shown in Tables XI and XII and FIGS. 1A and 1B. Comparative data for the commercial products are included. Seizures evoked in electroshock-kindled rats provide a suitable model consistent with complex partial seizures evolving into generalized motor seizures in humans.
^a Rats kindled to Stage 5. Endpoint was reduction from Stage 5 to […]

COC(=O)C1C(=O)C=C(Nc2ccc(Cl)cc2)CC1C (centres unmarked) [Compound 27]
threshold to chemostimulants [1]: did not lower the threshold to these chemostimulants
animals displaying neurotoxicity/tested (Neurotoxicity, rats ip; 0.25 h (Table X-A)): 0/8
animals displaying neurotoxicity/tested (Neurotoxicity, rats ip; 0.50 h (Table X-A)): 3/8
animals displaying neurotoxicity/tested (Neurotoxicity, rats ip; 1.00 h (Table X-A)): 6/8
animals displaying neurotoxicity/tested (Neurotoxicity, rats ip; 2.00 h (Table X-A)): 7/8
animals displaying neurotoxicity/tested (Neurotoxicity, rats ip; 4.00 h (Table X-A)): 2/8
animals displaying neurotoxicity/tested (Neurotoxicity, rats ip; 6.00 h (Table X-A)): 1/8
animals displaying neurotoxicity/tested (Neurotoxicity, rats ip; 8.00 h (Table X-A)): 0/8
animals displaying neurotoxicity/tested (Neurotoxicity, rats ip; 24.00 h (Table X-A)): 2/8
TD50 (in vivo [2]): 255 mg/kg
TPE (time of peak effect), toxicity (in vivo [2]): 2
selectivity ratio (in vivo [2]): 9.72
adenosine uptake (adenosine uptake): inactive
responders at 100 mg/kg ([3]; Mus musculus, 0.5 h, 30 min): 100%
responders at 300 mg/kg ([3]; Mus musculus, 0.5 h, 30 min): 100%
responders at 100 mg/kg ([3]; Mus musculus, 4 h, 4 h): 0%
responders at 300 mg/kg ([3]; Mus musculus, 4 h, 4 h): 100%
ED50 ([3]; Mus musculus, Phase II, time of peak effect): 26.2 mg/kg
TPE (time of peak effect), activity ([3]; Phase II): 0.5
average absorbance value (Kinetic hydrolysis; aqueous media, 37° C.): 0.929 (range 0.789-1.069)
average absorbance value (Kinetic hydrolysis; pH 7.4 buffer, 37° C.): 1.112 (range 0.983-1.240)
change of wavelength (λ max) on incubation (Kinetic hydrolysis; water and pH 7.4 buffer, 37° C.): the wavelength did not change from 311 nm
significance of absorbance differences (Kinetic hydrolysis; water vs pH 7.4 buffer): not significant
protection against strychnine (strychnine): uniformly inactive
TD50 (in vivo [4]): > 380 mg/kg
selectivity ratio (in vivo [4]): 65.6
Tox, animals toxic/tested (in vivo [4]; 6 mg/kg): 0/4
Tox, animals toxic/tested (in vivo [4]; 10 mg/kg): 0/4
benzodiazepine receptor binding (benzodiazepine receptor): inactive
protection against bicuculline (bicuculline): uniformly inactive
activity compared with benzylamine counterpart (seizures; 27 vs 16, 28 vs 17, 29 vs 20): activity is enhanced in all cases
minimal effective dose (seizures; Mus musculus, ip, Phase I, read-out: ASP Classification): < 100 mg/kg
anticonvulsant activity (seizures; mouse, in vivo): anticonvulsant activity was observed
GABA receptor binding (GABA receptor): inactive
responders at 100 mg/kg ([5]; 0.5 h, 30 min): 0%
responders at 300 mg/kg ([5]; 0.5 h, 30 min): 0%
responders at 100 mg/kg ([5]; 4 h, 4 h): 0%
responders at 300 mg/kg ([5]; 4 h, 4 h): 0%
Afterdischarge Amygdala: Duration ([6]; 350 mg/kg): 79.8 s
Afterdischarge Cortex: Duration ([6]; 350 mg/kg): 79.6 s
Afterdischarge Cortex: Latency ([6]; 350 mg/kg): 2.7 s
Behavioral Seizure: Duration ([6]; 350 mg/kg): 82.3 s
Behavioral Seizure: Latency ([6]; 350 mg/kg): 2.1 s
Forelimb Clonus: Duration ([6]; 350 mg/kg): 45.3 s
Forelimb Clonus: Latency ([6]; 350 mg/kg): 9.2 s
Seizure Stage ([6]; 350 mg/kg): 5.0
suppression of amygdala kindled seizures ([6]; in vivo): no significant activity
protection against picrotoxin (picrotoxin): uniformly inactive
protection against pentylenetetrazol (pentylenetetrazol): uniformly inactive
ED50 ([7]; Phase VI, rat): 5.79 mg/kg
responders at 6 mg/kg ([7]; 0.5 h, 0.50 h): 75%
responders at 10 mg/kg ([7]; 0.5 h, 0.50 h): 100%
responders at 6 mg/kg ([7]; 1.00 h): 50%
responders at 6 mg/kg ([7]; 2.00 h): 25%
responders at 10 mg/kg ([7]; 0.25 h): 75%
responders at 10 mg/kg ([7]; 1.00 h): 100%
responders at 10 mg/kg ([7]; 2.00 h): 100%
responders at 10 mg/kg ([7]; 4.00 h): 75%
% Reduction (Corneal Kindled rats; 20 mg/kg): 40%
Ave. seizure score (Corneal Kindled rats; 20 mg/kg): 3.0
% Reduction (Corneal Kindled rats; 30 mg/kg): 40%
Ave. seizure score (Corneal Kindled rats; 30 mg/kg): 3.0
% Reduction (Corneal Kindled rats; 40 mg/kg): 49%
Ave. seizure score (Corneal Kindled rats; 40 mg/kg): 2.6
% Reduction (Corneal Kindled rats; 50 mg/kg): 87%
Ave. seizure score (Corneal Kindled rats; 50 mg/kg): 1.7
ED50 (Corneal Kindled rats; po, 0.5 h, read-out: ED50 (reduction from Stage 5 to Stage 4)): 31.2 mg/kg
ED50 (Corneal Kindled rats; read-out: ED50, corneal kindling): 31.2 mg/kg
